Measured values: article PMC11110727, “Exploiting thiol-functionalized benzosiloxaboroles for achieving diverse substitution patterns – synthesis, characterization and biological evaluation of promising antibacterial agents” (RSC Medicinal Chemistry, 2024)
≈ marks a conversion by molar mass, not a printed value. Read-outs that look alike come from different tables or passages of the source.

What was measured:
[1] = test system: Gram-negative rods; test: Antibacterial activity against Gram-negative rods with or without PAβN (text summaries); type: cell-based; conditions: for reduction of MIC in the presence of PAβN: Enterobacterales; for efflux assay result (MIC with PAβN): Gram-negative rods
Experimental: Direct antimicrobial activity was determined against the following standard strains: (1) Gram-positive cocci: methicillin-sensitive Staphylococcus aureus ATCC 6538P (MSSA), methicillin-resistant S. aureus subsp. aureus ATCC 43300 (MRSA), S. epidermidis ATCC 12228, Enterococcus faecium ATCC 6057, E. faecalis ATCC 29212, Bacillus subtilis ATCC 6633; (2) Gram-negative bacteria from Enterobacteriales order: Klebsiella pneumoniae ATCC 13883, Escherichia coli ATCC 25922, Enterobacter cloacae DSM 6234, Proteus mirabilis ATCC 12453, Serratia marcescens ATCC 13880; (3) Gram-negative non-fermentative rods: Acinetobacter baumannii ATCC 19606, Pseudomonas aeruginosa ATCC 27853, Stenotrophomonas maltophilia ATCC 12714, S. maltophilia ATCC 13637, Burkholderia cepacia ATCC 25416, Bordetella bronchiseptica ATCC 4617; (4) yeasts: Candida albicans ATCC 90028, C. krusei ATCC 6258, C. parapsilosis ATCC 22019, C. tropicalis (Castellani) Berkhout ATCC 750, C. tropicalis IBA 171, C. guilliermondii IBA 155, and Saccharomyces cerevisiae ATCC 9763. Moreover, 5 clinical strains of methicillin-resistant S. aureus were also included: NMI 664 K, NMI 1576 K, NMI 1712 K, NMI 1991 K, and NMI 2541 K. All strains were stored at −80 °C. Prior to testing, each bacterial strain was subcultured twice on tryptic soy agar TSA (bioMerieux) medium and yeast strains on Sabouraud dextrose agar (bioMerieux) for 24–48 h at 30 °C to ensure viability. The antimicrobial activity was evaluated as previously described[26] by the disc-diffusion method and the MIC determination assays according to the EUCAST (ref. [71] and [72]) and CLSI (ref. [53] and [73]) recommendations. Assessment of bactericidal (MBC) and fungicidal (MFC) activities was performed according to the CLSI recommendations.[54,74] […] The new benzosiloxaboroles were dissolved in DMSO (Sigma).
Considering that the MDR efflux pumps often contribute to Gram-negative rod resistance, the MIC values of studied agents, with or without the pump inhibitor, PAβN (20 μg mL^−1) (Sigma), were determined.[75] The MIC was determined using Mueller–Hinton II broth medium (MHB) (Becton Dickinson) by the broth microdilution method, according to the CLSI guideliness.[53] To minimize the influence of PAβN on the destabilization of bacterial cell covers, the tests were conducted in the presence of 1 mM MgSO4 (Sigma).[76] At least a 4-fold reduction in the MIC value after the addition of PAβN was considered significant.[56,77]

[2] = test system: S. aureus NMI 1712 K MRSA; test: Antibacterial activity against clinical MRSA: MIC/MBC; type: cell-based; conditions: Staphylococcus aureus
Outline: (§1)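 Following two 24–48 h subcultures at 30 °C on the appropriate agar, the clinical MRSA isolates and yeast strains were tested by broth MIC and disc diffusion (EUCAST, CLSI). Killing endpoints (MBC/MFC) were determined per CLSI.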

[3] = test system: S. aureus NMI 2541 K MRSA; test: as above; type: cell-based; conditions: Staphylococcus aureus
Outline: as §1

[4] = test system: S. aureus NMI 1576 K MRSA; test: as above; type: cell-based; conditions: Staphylococcus aureus
Outline: as §1

[5] = test system: S. aureus NMI 1991 K MRSA; test: as above; type: cell-based; conditions: Staphylococcus aureus
Outline: as §1

[6] = Determination of acidity constants (pKa) by potentiometric titration
Experimental: 0.1 M NaOH in H2O/MeOH (1 : 1 v/v).
The acidity constants of benzosiloxaboroles 1e, 2e, 6, 20 and 22–24 were determined by standard pH titration with 0.05 M aq. NaOH. The measurements were performed using a thermostated (25.0 °C) glass vessel equipped with a magnetic stirrer and a 10 mL burette. Prior to the measurement, the pH glass electrode was calibrated using borax and phosphate buffers. A solution of the analyzed compound (ca. 20–40 mg) in a mixture of MeOH/H2O (v/v 1 : 1, 30 mL) was titrated until the pH of the solution exceeded the value of 12.0.

[7] = test system: Staphylococcus aureus, MSSA and MRSA strains; test: Antibacterial activity against S. aureus strains (text summaries); type: cell-based; conditions: for Eagle effect (paradoxical growth) during MBC determination: S. aureus ATCC 6538P and five MRSA clinical strains; for MIC / MBC: Staphylococcus aureus; for MBC: lowest MBC values
Experimental: Direct antimicrobial activity was determined against the following standard strains: (1) Gram-positive cocci: methicillin-sensitive Staphylococcus aureus ATCC 6538P (MSSA), methicillin-resistant S. aureus subsp. aureus ATCC 43300 (MRSA), S. epidermidis ATCC 12228, Enterococcus faecium ATCC 6057, E. faecalis ATCC 29212, Bacillus subtilis ATCC 6633; (2) Gram-negative bacteria from Enterobacteriales order: Klebsiella pneumoniae ATCC 13883, Escherichia coli ATCC 25922, Enterobacter cloacae DSM 6234, Proteus mirabilis ATCC 12453, Serratia marcescens ATCC 13880; (3) Gram-negative non-fermentative rods: Acinetobacter baumannii ATCC 19606, Pseudomonas aeruginosa ATCC 27853, Stenotrophomonas maltophilia ATCC 12714, S. maltophilia ATCC 13637, Burkholderia cepacia ATCC 25416, Bordetella bronchiseptica ATCC 4617; (4) yeasts: Candida albicans ATCC 90028, C. krusei ATCC 6258, C. parapsilosis ATCC 22019, C. tropicalis (Castellani) Berkhout ATCC 750, C. tropicalis IBA 171, C. guilliermondii IBA 155, and Saccharomyces cerevisiae ATCC 9763. Moreover, 5 clinical strains of methicillin-resistant S. aureus were also included: NMI 664 K, NMI 1576 K, NMI 1712 K, NMI 1991 K, and NMI 2541 K. All strains were stored at −80 °C. Prior to testing, each bacterial strain was subcultured twice on tryptic soy agar TSA (bioMerieux) medium and yeast strains on Sabouraud dextrose agar (bioMerieux) for 24–48 h at 30 °C to ensure viability. The antimicrobial activity was evaluated as previously described[26] by the disc-diffusion method and the MIC determination assays according to the EUCAST (ref. [71] and [72]) and CLSI (ref. [53] and [73]) recommendations. Assessment of bactericidal (MBC) and fungicidal (MFC) activities was performed according to the CLSI recommendations.[54,74] The following reference agents were used: fluconazole (in the case of fungi), linezolid (for Gram-positive bacteria), and nitrofurantoin (for Gram-negative rods). The new benzosiloxaboroles were dissolved in DMSO (Sigma).

[8] = MRSA, read-out: MBC (first MBC where Eagle effect)
[9] = MRSA, read-out: second MBC (Eagle effect)
[10] = both MSSA and MRSA strains, read-out: MIC values against Staphylococcus aureus
[11] = NMI 1712 K MRSA, read-out: MBC (first MBC where Eagle effect)
[12] = NMI 2541 K MRSA, read-out: MBC (first MBC where Eagle effect)
[13] = NMI 1576 K MRSA, read-out: MBC (first MBC where Eagle effect)
[14] = NMI 1991 K MRSA, read-out: MBC (first MBC where Eagle effect)

SMILES: C[Si]1(C)OB(O)c2ccc(SC3CC(=O)NC3=O)c(F)c21 (centres unmarked) [Compound 13, 3-((7-Fluoro-3-hydroxy-1,1-dimethyl-1,3-dihydrobenzo[c][1,2,5]oxasilaborol-6-yl)thio)pyrrolidine-2,5-dione]
- reduction of MIC in the presence of PAβN [1]: at least 4 -fold

SMILES: CCOP(=O)(OCC)Sc1c(F)cc2c(c1F)[Si](C)(C)OB2O [Compound 24, S-(5,7-Difluoro-3-hydroxy-1,1-dimethyl-1,3-dihydrobenzo[c][1,2,5]oxasilaborol-6-yl) O,O-diethyl phosphorothioate]
- MIC ([2]; MRSA): 12.5 µg/mL (≈ 32.7 µM)
- MBC [2, 8]: 25 µg/mL (≈ 65.4 µM)
- MBC [2, 9]: > 400 µg/mL
- MIC ([3]; MRSA): 12.5 µg/mL (≈ 32.7 µM)
- MBC [3, 8]: 12.5 µg/mL (≈ 32.7 µM)
- MBC [3, 9]: > 400 µg/mL
- MIC ([4]; MRSA): 6.25 µg/mL (≈ 16.4 µM)
- MBC [4, 8]: 12.5 µg/mL (≈ 32.7 µM)
- MBC [4, 9]: 400 µg/mL (≈ 1050 µM)
- MIC ([5]; MRSA): 12.5 µg/mL (≈ 32.7 µM)
- MBC [5, 8]: 12.5 µg/mL (≈ 32.7 µM)
- MBC [5, 9]: > 400 µg/mL
- pKa [6]: 4.9
- Eagle effect (paradoxical growth) during MBC determination [7]: Eagle effect
- MIC [7, 10]: 1.56 to 12.5 µg/mL (≈ 4.08 to 32.7 µM)

SMILES: COC(=O)CCSc1ccc2c(c1F)[Si](C)(C)OB2O [Compound 4, Methyl 3-((7-fluoro-3-hydroxy-1,1-dimethyl-1,3-dihydrobenzo[c][1,2,5]oxasilaborol-6-yl)thio)propanoate]
- efflux assay result (MIC with PAβN) [1]: actively extruded from bacterial cells
- Eagle effect (paradoxical growth) during MBC determination [7]: Eagle effect

SMILES: C[Si]1(C)OB(O)c2ccc(SC(=O)c3ccc(C(F)(F)F)cc3)c(F)c21 [Compound 25, S-(7-Fluoro-3-hydroxy-1,1-dimethyl-1,3-dihydrobenzo[c][1,2,5]oxasilaborol-6-yl) 4-(trifluoromethyl)benzothioate]
- MBC [2, 11]: 25 µg/mL (≈ 62.5 µM)
- MIC ([2]; NMI 1712 K MRSA, read-out: MIC): 12.5 µg/mL (≈ 31.2 µM)
- MBC [3, 12]: 25 µg/mL (≈ 62.5 µM)
- MIC ([3]; NMI 2541 K MRSA, read-out: MIC): 12.5 µg/mL (≈ 31.2 µM)
- MBC [4, 13]: 50 µg/mL (≈ 125 µM)
- MIC ([4]; NMI 1576 K MRSA, read-out: MIC): 25 µg/mL (≈ 62.5 µM)
- MBC [5, 14]: 50 µg/mL (≈ 125 µM)
- MIC ([5]; NMI 1991 K MRSA, read-out: MIC): 25 µg/mL (≈ 62.5 µM)
- MBC [7]: 25 to 50 µg/mL (≈ 62.5 to 125 µM)

SMILES: C[Si]1(C)OB(O)c2cc(F)c(S)c(F)c21 [Compound 1e, 5,7-Difluoro-6-mercapto-1,1-dimethylbenzo[c][1,2,5]oxasilaborol-3(1H)-ol]
- MBC [7]: 25 to 50 µg/mL (≈ 102 to 203 µM)

SMILES: C[Si]1(C)OB(O)c2ccc(SCC(=O)c3ccccc3)c(F)c21 [Compound 23, 2-((7-Fluoro-3-hydroxy-1,1-dimethyl-1,3-dihydrobenzo[c][1,2,5]oxasilaborol-6-yl)thio)-1-phenylethan-1-one]
- MBC [2, 11]: 25 µg/mL (≈ 72.2 µM)
- MIC ([2]; NMI 1712 K MRSA, read-out: MIC): 3.12 µg/mL (≈ 9.01 µM)
- MBC ([2]; NMI 1712 K MRSA, read-out: second MBC (Eagle effect)): 200 µg/mL (≈ 578 µM)
- MBC [3, 12]: 6.25 µg/mL (≈ 18 µM)
- MIC ([3]; NMI 2541 K MRSA, read-out: MIC): 1.56 µg/mL (≈ 4.51 µM)
- MBC ([3]; NMI 2541 K MRSA, read-out: second MBC (Eagle effect)): 200 µg/mL (≈ 578 µM)
- MBC [4, 13]: 6.25 µg/mL (≈ 18 µM)
- MIC ([4]; NMI 1576 K MRSA, read-out: MIC): 3.12 µg/mL (≈ 9.01 µM)
- MBC ([4]; NMI 1576 K MRSA, read-out: second MBC (Eagle effect)): 100 µg/mL (≈ 289 µM)
- MBC [5, 14]: 3.12 µg/mL (≈ 9.01 µM)
- MIC ([5]; NMI 1991 K MRSA, read-out: MIC): 1.56 µg/mL (≈ 4.51 µM)
- MBC ([5]; NMI 1991 K MRSA, read-out: second MBC (Eagle effect)): 200 µg/mL (≈ 578 µM)
- pKa [6]: 6.3
- Eagle effect (paradoxical growth) during MBC determination [7]: Eagle effect
- MIC [7, 10]: 1.56 to 12.5 µg/mL (≈ 4.51 to 36.1 µM)
- MIC ([7]; standard and five clinical MRSA strains (Table 4), read-out: MIC (MRSA)): 1.56 to 3.12 µg/mL (≈ 4.51 to 9.01 µM)

SMILES: C[Si]1(C)OB(O)c2ccc(SCCS(=O)(=O)c3ccccc3)c(F)c21 [Compound 21, 7-Fluoro-1,1-dimethyl-6-((2-(phenylsulfonyl)ethyl)thio)benzo[c][1,2,5]oxasilaborol-3(1H)-ol]
- efflux assay result (MIC with PAβN) [1]: actively extruded from bacterial cells

SMILES: C[Si]1(C)OB(O)c2ccc(S)c(F)c21 [Compound 2e, 7-Fluoro-6-mercapto-1,1-dimethylbenzo[c][1,2,5]oxasilaborol-3(1H)-ol]
- MBC [7]: 25 to 50 µg/mL (≈ 110 to 219 µM)

SMILES: C[Si]1(C)OB(O)c2cc(F)c(SC3CC(=O)NC3=O)c(F)c21 (centres unmarked) [Compound 12, 3-((5,7-Difluoro-3-hydroxy-1,1-dimethyl-1,3-dihydrobenzo[c][1,2,5]oxasilaborol-6-yl)thio)pyrrolidine-2,5-dione]
- reduction of MIC in the presence of PAβN [1]: at least 4 -fold
- MBC [2, 11]: 200 µg/mL (≈ 583 µM)
- MIC ([2]; NMI 1712 K MRSA, read-out: MIC): 12.5 µg/mL (≈ 36.4 µM)
- MBC [3, 12]: 200 µg/mL (≈ 583 µM)
- MIC ([3]; NMI 2541 K MRSA, read-out: MIC): 12.5 µg/mL (≈ 36.4 µM)
- MBC [4, 13]: 100 µg/mL (≈ 291 µM)
- MIC ([4]; NMI 1576 K MRSA, read-out: MIC): 6.25 µg/mL (≈ 18.2 µM)
- MBC [5, 14]: 100 µg/mL (≈ 291 µM)
- MIC ([5]; NMI 1991 K MRSA, read-out: MIC): 12.5 µg/mL (≈ 36.4 µM)
- MIC [7, 10]: 1.56 to 12.5 µg/mL (≈ 4.55 to 36.4 µM)
